Experiments:
adzuki bean section [1] = test: adzuki bean root promotion assay (section immersion treatment, adventitious roots counted); format: in vivo; conditions: for Relative value (%): 0/0 ppm group = 100; for Ratio to untreated group (%): untreated group = 100
Protocol: An aqueous solution of DL-phenyllactic acid (Sigma-Aldrich Japan) and L-tryptophan (Wako Pure Chemical Industries, Ltd.) was prepared so that the total concentration of the compounds was 400 ppm and adjusted to pH 7 with hydrochloric acid, and the solution was subjected to an adzuki bean root promotion assay (Itagaki et al. 2003. Biological activities and structure-activity relationship of substitution compounds of N-[2-(3-indolyl)ethyl]succinamic acid and N-[2-(1-naphthyl)ethyl]succinamic acid, derived from a new category of root-promoting substance, N-(phenethyl) succinamic acid analogs. Plant Soil 255: 67-75). The base of an adzuki section was immersed in the test solution for 72 hours, and adventitious roots generated 7 days after immersion were counted. The repetition number was 5.
To study the cooperation effect of phenyllactic acid and aromatic amino acids other than L-tryptophan, each of 1 mM of DL-phenyllactic acid (Sigma-Aldrich Japan), L-tryptophan (Wako Pure Chemical Industries, Ltd.), L-phenylalanine (Wako Pure Chemical Industries, Ltd.), and L-tyrosine (Wako Pure Chemical Industries, Ltd.), and aqueous solutions obtained by adding the amino acids to DL-phenyllactic acid were prepared, and subjected to the adzuki bean root promotion assay in the same way as in Example 1.
To compare effects of combinations of tryptophan enantiomers and phenyllactic acid enantiomers, aqueous solutions of 400 ppm of L-tryptophan, D-tryptophan (Wako Pure Chemical Industries, Ltd.), L-phenyllactic acid (Sigma-Aldrich Japan), and D-phenyllactic acid (Sigma-Aldrich Japan) were prepared. Separately, aqueous solutions of 200 ppm of each of the tryptophan enantiomers and 200 ppm of each of the […] enantiomers were prepared and subjected to the adzuki bean root promotion assay in the same way as in Example 1. […]

adzuki bean section [2] = test: as above; format: in vivo; conditions: for Relative value (%): 0/0 ppm group = 100; for Number of roots: 72 h immersion, counted 7 days after immersion
plants = conditions: background art; cited from earlier work
[3] = Table 4: each component present at 1 mM
[4] = Table 3: L-tryptophan 0 ppm, DL-phenyllactic acid 20 ppm
[5] = Table 5: single enantiomer 400 ppm
[6] = Table 3: L-tryptophan 1200 ppm, DL-phenyllactic acid 0 ppm

SMILES	Number of roots (adzuki bean section [1]; [3])	Ratio to untreated group (%) (adzuki bean section [1]; [3])	Number of roots (adzuki bean section [1]; [5])	Relative value (%) (adzuki bean section [1]; [5])	other results
O=C(O)C(O)Cc1ccccc1 (racemic) [DL-phenyllactic acid]	18.8	132			root promoting effect (in words) (adzuki bean section [1]; Table 1, only DL-phenyllactic acid): slight root promoting effect; Relative value (%) (adzuki bean section [1]; Table 1: L-tryptophan 0 ppm, DL-phenyllactic acid 400 ppm): 137%; Number of roots (adzuki bean section [1]; Table 1: L-tryptophan 0 ppm, DL-phenyllactic acid 400 ppm, 72 h immersion, counted 7 days after immersion): 22.4; Relative value (%) (adzuki bean section [1]; Table 2: L-tryptophan 0 ppm, DL-phenyllactic acid 400 ppm): 268%; Number of roots (adzuki bean section [1]; Table 2: L-tryptophan 0 ppm, DL-phenyllactic acid 400 ppm, 72 h immersion, counted 7 days after immersion): 32.2; Ratio to group treated with only DL-phenyllactic acid (%) (adzuki bean section [1]; Table 4: each component present at 1 mM, 1 mM DL-phenyllactic acid only = 100): 100%; Relative value (%) (adzuki bean section [2]; [4]): 107%; Number of roots (adzuki bean section [2]; [4]): 11.6
O=C(O)[C@@H](O)Cc1ccccc1 [D-phenyllactic acid]			27.6	192	
N[C@H](Cc1c[nH]c2ccccc12)C(=O)O [D-tryptophan]			24.2	168	
N[C@@H](Cc1ccccc1)C(=O)O [L-phenylalanine]	16.6	117			
O=C(O)[C@@H](O)Cc1ccccc1 [L-phenyllactic acid]			19.4	135	
N[C@@H](Cc1c[nH]c2ccccc12)C(=O)O [L-tryptophan]	19.2	135	22.2	154	Relative value (%) (adzuki bean section [1]; Table 1: L-tryptophan 400 ppm, DL-phenyllactic acid 0 ppm): 113%; Number of roots (adzuki bean section [1]; Table 1: L-tryptophan 400 ppm, DL-phenyllactic acid 0 ppm, 72 h immersion, counted 7 days after immersion): 18.6; Relative value (%) (adzuki bean section [1]; Table 3: L-tryptophan 400 ppm, DL-phenyllactic acid 0 ppm): 98%; Number of roots (adzuki bean section [1]; Table 3: L-tryptophan 400 ppm, DL-phenyllactic acid 0 ppm, 72 h immersion, counted 7 days after immersion): 10.6; Relative value (%) (adzuki bean section [2]; [6]): 139%; Number of roots (adzuki bean section [2]; [6]): 15.0
N[C@@H](Cc1ccc(O)cc1)C(=O)O [L-tyrosine]	13.6	96			
O=C(O)C(O)Cc1ccccc1 (stereo not shown) [phenyllactic acid, 3-phenyllactic acid]					root promoting effect on plants (in words) (plants): the effect is weak
